Experimental data reported in the CheMixHub viscosity set.
± gives the uncertainty stated by the source.

Experiment: xn = mol fraction of the nth substance listed

FC(F)(Cl)C(F)(F)Cl + FC(F)Cl
101 kPa
Conditions | viscosity [mPa·s]
293.25 K, x2 = 0.182 | 0.3196 ± 0.0087
293.25 K, x2 = 0.457 | 0.2521 ± 0.0069
293.25 K, x2 = 0.568 | 0.2391 ± 0.0065
293.25 K, x2 = 0.663 | 0.2175 ± 0.0059
293.25 K, x2 = 0.748 | 0.1992 ± 0.0054
293.35 K, x2 = 0.947 | 0.1767 ± 0.0048
293.75 K, x2 = 0.329 | 0.2853 ± 0.0078
312.85 K, x2 = 0.457 | 0.2097 ± 0.0057
312.85 K, x2 = 0.663 | 0.1757 ± 0.0048
312.95 K, x2 = 0.182 | 0.2474 ± 0.0067
312.95 K, x2 = 0.821 | 0.1515 ± 0.0041
313.05 K, x2 = 0.568 | 0.1902 ± 0.0052
313.05 K, x2 = 0.748 | 0.1648 ± 0.0045
313.05 K, x2 = 0.947 | 0.141 ± 0.0038
313.15 K, x2 = 0.891 | 0.1461 ± 0.004
313.55 K, x2 = 0.329 | 0.2284 ± 0.0062

CCCN(CCC)CCC + c1ccccc1
viscosity [mPa·s], 101 kPa
Conditions | x1 = 0.01039 | x1 = 0.02061 | x1 = 0.03067 | x1 = 0.04025 | x1 = 0.04975 | x1 = 0.05958 | x1 = 0.06933 | x1 = 0.07883 | x1 = 0.08893
303.15 K | 0.5599 ± 0.0043 | 0.5574 ± 0.0043 | 0.5552 ± 0.0043 | 0.5532 ± 0.0043 | 0.5515 ± 0.0043 | 0.5487 ± 0.0043 | 0.5467 ± 0.0042 | 0.5453 ± 0.0043 | 0.5429 ± 0.0042
313.15 K | 0.4902 ± 0.0039 | 0.4877 ± 0.0039 | 0.4859 ± 0.0039 | 0.4836 ± 0.0039 | 0.4818 ± 0.0039 | 0.4793 ± 0.0039 | 0.4772 ± 0.0039 | 0.476 ± 0.0039 | 0.4738 ± 0.0039

CCCCC(CC)COC(C)=O (configuration not stated) + CCCCO
viscosity [mPa·s], 101.33 kPa
Conditions | x1 = 0.0991 | x1 = 0.2017 | x1 = 0.2984 | x1 = 0.4115 | x1 = 0.5002 | x1 = 0.6078 | x1 = 0.7049 | x1 = 0.8061 | x1 = 0.9005
293.15 K | 2.681 ± 0.3 | 2.504 ± 0.28 | 2.344 ± 0.27 | 2.177 ± 0.26 | 2.052 ± 0.24 | 1.91 ± 0.23 | 1.791 ± 0.22 | 1.674 ± 0.21 | 1.572 ± 0.21
303.15 K | 2.139 ± 0.25 | 2.01 ± 0.24 | 1.894 ± 0.23 | 1.768 ± 0.22 | 1.675 ± 0.21 | 1.568 ± 0.21 | 1.478 ± 0.2 | 1.389 ± 0.19 | 1.311 ± 0.18
313.15 K | 1.605 ± 0.21 | 1.529 ± 0.2 | 1.461 ± 0.2 | 1.386 ± 0.19 | 1.329 ± 0.19 | 1.264 ± 0.18 | 1.207 ± 0.18 | 1.151 ± 0.17 | 1.101 ± 0.17
323.15 K | 1.07 ± 0.17 | 1.05 ± 0.16 | 1.031 ± 0.16 | 1.01 ± 0.16 | 0.994 ± 0.16 | 0.974 ± 0.16 | 0.957 ± 0.16 | 0.939 ± 0.15 | 0.923 ± 0.15

Clc1ccc(Cl)c(Cl)c1 + Nc1cccc(Cl)c1
viscosity [mPa·s], 100 kPa
Conditions | x2 = 0.0895 | x2 = 0.1795 | x2 = 0.3125 | x2 = 0.4256 | x2 = 0.5169 | x2 = 0.6254 | x2 = 0.7145 | x2 = 0.8102 | x2 = 0.9012
303.15 K | 1.993 ± 0.015 | 2.225 ± 0.016 | 2.565 ± 0.018 | 2.851 ± 0.02 | 3.079 ± 0.022 | 3.348 ± 0.024 | 3.566 ± 0.025 | 3.798 ± 0.027 | 4.017 ± 0.029
308.15 K | 1.825 ± 0.014 | 2.033 ± 0.015 | 2.337 ± 0.017 | 2.593 ± 0.019 | 2.797 ± 0.021 | 3.037 ± 0.022 | 3.231 ± 0.024 | 3.437 ± 0.025 | 3.631 ± 0.027
313.15 K | 1.658 ± 0.013 | 1.843 ± 0.014 | 2.111 ± 0.016 | 2.336 ± 0.018 | 2.516 ± 0.019 | 2.727 ± 0.021 | 2.896 ± 0.022 | 3.078 ± 0.024 | 3.248 ± 0.025
318.15 K | 1.493 ± 0.013 | 1.653 ± 0.014 | 1.887 ± 0.015 | 2.083 ± 0.017 | 2.237 ± 0.018 | 2.419 ± 0.02 | 2.566 ± 0.021 | 2.722 ± 0.022 | 2.867 ± 0.023

CCN(CC)c1ccccc1 + O=S1(=O)CCCC1
viscosity [mPa·s], 101 kPa
Conditions | x1 = 0.0999 | x1 = 0.2008 | x1 = 0.2993 | x1 = 0.4001 | x1 = 0.5001 | x1 = 0.6027 | x1 = 0.7023 | x1 = 0.7999 | x1 = 0.8991
303.15 K | 8.19 ± 0.17 | 6.62 ± 0.14 | 5.41 ± 0.11 | 4.44 ± 0.09 | 3.7 ± 0.08 | 3.09 ± 0.07 | 2.63 ± 0.06 | 2.26 ± 0.05 | 1.96 ± 0.04
308.15 K | 7.26 ± 0.15 | 5.88 ± 0.12 | 4.81 ± 0.1 | 3.96 ± 0.08 | 3.3 ± 0.07 | 2.77 ± 0.06 | 2.36 ± 0.05 | 2.04 ± 0.04 | 1.77 ± 0.04
313.15 K | 6.45 ± 0.14 | 5.25 ± 0.11 | 4.31 ± 0.09 | 3.54 ± 0.08 | 2.96 ± 0.06 | 2.49 ± 0.05 | 2.13 ± 0.05 | 1.84 ± 0.04 | 1.6 ± 0.03

Cc1ccc(C(C)C)c(O)c1 + CCCCCCCCCC(=O)O
100 kPa, x2 = 0.5
Conditions | viscosity [mPa·s]
293.15 K | 15.28 ± 0.15
298.15 K | 12.16 ± 0.12
303.15 K | 9.86 ± 0.09
308.15 K | 8.12 ± 0.08
313.15 K | 6.78 ± 0.07
318.15 K | 5.74 ± 0.06
323.15 K | 4.91 ± 0.05

CCCCCCCCCCBr + ClC(Cl)(Cl)Cl
101 kPa
Conditions | viscosity [mPa·s]
297.75 K, x1 = 0.0484 | 0.9823 ± 0.021
297.75 K, x1 = 0.0969 | 1.057 ± 0.023
297.75 K, x1 = 0.1945 | 1.208 ± 0.026
297.75 K, x1 = 0.3918 | 1.52 ± 0.033
297.75 K, x1 = 0.5923 | 1.858 ± 0.04
297.75 K, x1 = 0.7944 | 2.106 ± 0.045
303.95 K, x1 = 0.0456 | 0.8918 ± 0.019
303.95 K, x1 = 0.0914 | 0.9574 ± 0.021
303.95 K, x1 = 0.1852 | 1.105 ± 0.024
303.95 K, x1 = 0.2667 | 1.2 ± 0.026
303.95 K, x1 = 0.5802 | 1.618 ± 0.035
303.95 K, x1 = 0.7825 | 1.864 ± 0.04
313.55 K, x1 = 0.0457 | 0.7792 ± 0.017
313.55 K, x1 = 0.092 | 0.8323 ± 0.018
313.55 K, x1 = 0.1856 | 0.948 ± 0.021
313.55 K, x1 = 0.378 | 1.171 ± 0.025
313.55 K, x1 = 0.5776 | 1.377 ± 0.03
313.55 K, x1 = 0.7832 | 1.562 ± 0.034

ClCCCCl + CCC(C)(C)O
viscosity [mPa·s], 101 kPa
Conditions | x1 = 0.101 | x1 = 0.2021 | x1 = 0.3082 | x1 = 0.4082 | x1 = 0.5066 | x1 = 0.608 | x1 = 0.7071 | x1 = 0.808 | x1 = 0.9003
298.15 K | 2.779 ± 0.027 | 1.877 ± 0.017 | 1.393 ± 0.012 | 1.18 ± 0.0095 | 1.061 ± 0.0085 | 0.9826 ± 0.0079 | 0.9381 ± 0.0076 | 0.9128 ± 0.0075 | 0.9114 ± 0.0075
313.15 K | 1.508 ± 0.02 | 1.164 ± 0.012 | 0.9559 ± 0.0086 | 0.8566 ± 0.0074 | 0.7978 ± 0.0068 | 0.7579 ± 0.0064 | 0.7469 ± 0.0063 | 0.7328 ± 0.0062 | 0.7431 ± 0.0064

CCCCCCCCCCCCCC[P+](CCCCCC)(CCCCCC)CCCCCC.c1ccc2[n-]cnc2c1 + O
Conditions | viscosity [mPa·s]
298.15 K, 100 kPa, x2 = 0.759 | 207 ± 7

CCOC(=O)CC(=O)OCC + CC(=O)c1ccccc1
viscosity [mPa·s], 101 kPa
Conditions | x1 = 0.0812 | x1 = 0.1401 | x1 = 0.2516 | x1 = 0.3486 | x1 = 0.4322 | x1 = 0.5248 | x1 = 0.6335 | x1 = 0.7384 | x1 = 0.8256 | x1 = 0.9278
303.15 K | 1.564 ± 0.034 | 1.587 ± 0.034 | 1.626 ± 0.035 | 1.655 ± 0.036 | 1.677 ± 0.036 | 1.697 ± 0.037 | 1.714 ± 0.037 | 1.727 ± 0.037 | 1.732 ± 0.038 | 1.738 ± 0.038
308.15 K | 1.412 ± 0.031 | 1.43 ± 0.031 | 1.461 ± 0.032 | 1.487 ± 0.032 | 1.506 ± 0.033 | 1.524 ± 0.033 | 1.54 ± 0.033 | 1.55 ± 0.034 | 1.559 ± 0.034 | 1.567 ± 0.034
313.15 K | 1.315 ± 0.028 | 1.334 ± 0.029 | 1.363 ± 0.029 | 1.384 ± 0.03 | 1.4 ± 0.03 | 1.416 ± 0.031 | 1.43 ± 0.031 | 1.44 ± 0.031 | 1.446 ± 0.031 | 1.454 ± 0.031

CCCC(C)CO (configuration not stated) + CO
298.15 K, 101.33 kPa
Conditions | viscosity [mPa·s]
x2 = 0.0849 | 4.645 ± 0.043
x2 = 0.2146 | 3.757 ± 0.034
x2 = 0.3193 | 3.053 ± 0.028
x2 = 0.4183 | 2.526 ± 0.023
x2 = 0.5192 | 2.018 ± 0.019
x2 = 0.6077 | 1.676 ± 0.016
x2 = 0.7069 | 1.296 ± 0.012
x2 = 0.8045 | 1.018 ± 0.0097
x2 = 0.9002 | 0.7552 ± 0.0074

CCCN(CCC)CCC + C1COCCO1
Conditions | viscosity [mPa·s]
303.15 K, 101 kPa, x1 = 0.0198 | 1.045 ± 0.0077
